Measurements reported in patent US11229683B2, “Hematopoietic growth factor proteins and analogs thereof and angiotensin converting enzyme inhibitors for treatment of radiation exposure” (priority 2015, dated 2022).
Where two headings read alike, the source gives them in different places. Marks after values point to notes of the source that are not given here.

Key:
8.3 Gy irradiated mice = settings: cited from earlier work; for 48-day survival vs water: 8.3 Gy
plasma ACE activity = target: T1, plasma ACE activity (Mus musculus, UniProt P09470); settings: all 3 doses: 10, 30, or 90 mg/kg sc twice per day; cited from earlier work
T1 construct: host or cells: plasma of perindopril-treated mice (endogenous enzyme)
T1 sequence (P09470 35-1237 limits assumed): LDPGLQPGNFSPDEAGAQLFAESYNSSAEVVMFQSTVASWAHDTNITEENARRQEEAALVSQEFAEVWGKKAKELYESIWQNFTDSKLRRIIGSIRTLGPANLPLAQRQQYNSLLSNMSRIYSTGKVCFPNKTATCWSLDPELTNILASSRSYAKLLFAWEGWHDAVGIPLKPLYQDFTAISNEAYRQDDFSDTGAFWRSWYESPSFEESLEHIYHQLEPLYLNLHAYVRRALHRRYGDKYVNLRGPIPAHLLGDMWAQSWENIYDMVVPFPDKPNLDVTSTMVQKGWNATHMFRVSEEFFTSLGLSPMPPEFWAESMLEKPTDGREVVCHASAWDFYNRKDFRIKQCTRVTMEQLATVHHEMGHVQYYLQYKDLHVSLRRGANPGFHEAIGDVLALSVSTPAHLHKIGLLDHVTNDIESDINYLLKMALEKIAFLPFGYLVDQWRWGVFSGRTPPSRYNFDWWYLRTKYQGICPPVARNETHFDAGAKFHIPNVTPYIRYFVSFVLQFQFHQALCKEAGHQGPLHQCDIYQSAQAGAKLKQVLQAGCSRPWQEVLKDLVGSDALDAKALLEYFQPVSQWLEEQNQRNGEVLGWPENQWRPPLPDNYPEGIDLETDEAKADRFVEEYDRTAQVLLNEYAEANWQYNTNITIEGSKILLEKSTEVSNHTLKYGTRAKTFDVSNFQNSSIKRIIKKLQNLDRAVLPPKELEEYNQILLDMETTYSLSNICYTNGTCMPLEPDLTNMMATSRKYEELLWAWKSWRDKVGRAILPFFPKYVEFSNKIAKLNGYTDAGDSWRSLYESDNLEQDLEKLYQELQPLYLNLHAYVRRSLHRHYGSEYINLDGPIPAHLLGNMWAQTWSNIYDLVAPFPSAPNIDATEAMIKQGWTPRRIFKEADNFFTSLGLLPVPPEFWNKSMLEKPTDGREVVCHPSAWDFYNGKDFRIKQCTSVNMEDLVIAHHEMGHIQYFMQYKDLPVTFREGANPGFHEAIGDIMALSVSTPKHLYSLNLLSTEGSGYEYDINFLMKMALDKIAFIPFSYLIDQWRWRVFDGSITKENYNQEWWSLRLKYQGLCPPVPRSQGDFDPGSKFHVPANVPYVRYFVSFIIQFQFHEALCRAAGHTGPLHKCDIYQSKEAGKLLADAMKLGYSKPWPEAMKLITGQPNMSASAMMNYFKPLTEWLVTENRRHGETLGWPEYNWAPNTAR

8.25 Gy-irradiated mice = settings: cited from earlier work
7.5 Gy-irradiated mice = settings: cited from earlier work
7 Gy-irradiated rats = settings: 7 Gy rats; captopril 0.3 g/L in drinking water from day −7 to Day 0; cited from earlier work
irradiated rats [1] = assay: Rat 13 Gy leg-out TBI model, renal injury by blood urea nitrogen (BUN); type: in vivo; settings: surviving animals, TC day 1, Lisinopril Day 7 to Day 150
Description: Euthanized animals are classified as non-survivors.
Blood urea nitrogen (BUN) measurements were made as a separate measure of kidney damage in surviving animals on Days 90, 120 and 150 (Table 8). BUN measurements are a commonly used measure of kidney function, with higher BUN numbers indicating greater kidney damage. Normal rat BUN measurements for non-irradiated rats are in the 17-22 mg/dL range. Rats were euthanized if BUN measurements were at or above 120 mg/dL.

irradiated rats [2] = assay: Rat 13 Gy leg-out TBI model, transthoracic echocardiography on day 50, Example 8; type: in vivo
Description: Non-irradiated rats (0 Gy) served as controls. On day 50, the rats were anesthetized with isoflurane (2%) and transthoracic echocardiography was performed. Measurements were obtained by an investigator who was blinded to the treatment groups. Animals were studied in the left lateral decubitus position and data was recorded with a Vivid 7 echocardiographic system (General Electric, Waukesha, Wis.).

lethally irradiated rats = settings: 13 Gy leg-out TBI, TC sc day 1, Lisinopril in drinking water Day 7 to Day 150, 12 rats/group
Description: Female WAG/RijCmcr rats were irradiated with 13 Gy at 12 weeks of age when they weighed ˜150-170 gm. Briefly, animals were immobilized in a plexiglass jig to avoid anesthetic. One hind leg was shielded with a one-quarter inch thick lead block. Shielding one leg from radiation exposure is sufficient to prevent death from hematopoietic failure during the following 40 days. […] The x-ray system was operated at 320 kVp and 13 mAs with a half value layer of 1.4 mm Cu. During the irradiation, each rat was confined in a separate chamber in a plastic jig, which allowed irradiation of 2 rats simultaneously. The chambers were placed on a plane perpendicular to the beam direction with distance from source to the midline of rats to be set at 33.5 cm. Collimator jaws were used to define a radiation field large enough to cover both chambers with adequate margin (at least 2 cm). Irradiated rats were given supportive care between days 2 to 14 post-TBI to mitigate acute gastrointestinal injury. This supportive care consisted of sc injections of saline (40 mL/kg/day) from days 3 to 7 post-TBI and the antibiotic enrofloxacin (10 mg/kg/day), given orally in the drinking water from days 2 to 14 post-TBI.
This study comprised four test groups, each consisting of 12 rats (Table 7). Rats received a single sc injection of vehicle solution (10 mM sodium phosphate, 4% mannitol, 1% sucrose pH 6.2) or an HGF triple combination (TC) at 24+4/−0 hr post-irradiation. […] Morbidity and survival of the animals were measured over time. Rats were euthanized if their body condition reached IACUC criteria for euthanasia or if their blood urea nitrogen (BUN) was measured at or above 120 mg/mL, which is an indicator if severe kidney damage. Euthanized animals are classified as non-survivors. Death prior to day 40 in this model typically occurs as a result of hematopoietic failure (H-ARS) or gastrointestinal injury (GI-ARS). Death between days 40 and 90 typically occurs as a result of lung damage, particularly pneumonitis. Death between days 90 and 150 typically occurs as a result of kidney damage (nephropathy). Morbidity at Day 40, 90 and 150 were chosen as representative times for death due to H-ARS, lung damage, and a combination of lung damage and kidney damage, respectively.

LD95/30 irradiated mice = assay: Mouse ARS survival assay, LD95/30 (927 cGy), Example 1; type: in vivo; settings: LD95/30 (927 cGy) TBI, single sc injection 24 h post-irradiation; for % 30-d survival: PEG IL-11 0.3 mg/kg, PEG-G-CSF 1 mg/kg, PEG muGM-CSF 1 mg/kg, 40 mice/group
Description: The efficacy of three individual HGFs and all possible combinations of the 3 proteins to increase 30 day survival of lethally irradiated mice was tested at an LD95/30 radiation dose (a dose of radiation expected to cause death to 95% of an exposed population within 30 days). […] Male and female mice (Mus musculus, C57BL/6 strain), aged 10-12 weeks upon study initiation, were used for these studies. There were 40 animals per treatment group, 50% males and 50% females. A dose of radiation equal to the LD95/30 was delivered as a single uniform total body dose (TBD) of gamma radiation from a ^137Cs radiation source (GammaCell 40; Nordion International, Kanata, Ontario, Canada) at an exposure rate of 98.575-100.3±5.01 cGy/minute. Pilot studies determined the LD95/30 dose of radiation to be 927 cGy. […] Each group of mice irradiated together in the same irradiation pie was roughly divided among all groups to ensure that each group received the same irradiation exposure conditions. After irradiation mice were randomized to one of the Test Article or Control Article groups. Mice were provided acidified water (pH 2.0-3.0) in bottles and fed certified commercial extruded laboratory animal chow (HARLAN 2018SXC) throughout the study. On day 4 post-exposure, mice were provided acidified autoclaved water in bottles and also in wetted chow (HARLAN 2018SXC) in a petri dish set in the bottom of the cage. Mice were monitored for survival once per day until signs of early euthanasia appear, then twice per day until day 30. Mice meeting predetermined euthanasia criteria were euthanized.
Complete Blood Cell Counts (CBCs) with differential and peripheral smears were performed at baseline (pre-irradiation) and on days 10, 20, 25, and 30 post-TBI. Two randomly selected mice/group in different cages were bled on day −3 to day −1 prior to TBI for a total of 12 baseline CBCs. Four randomly selected mice/group were bled on days 10, 20, 25, and 30 post-TBI. When possible, the same number of males and females in each group and in separate cages were selected for bleeding. […]

[3] = system: LD65/30 irradiated one year old mice; assay: Mouse ARS survival assay in one year old mice, 10 Gy (LD65/30), Example 4; type: in vivo; settings: single sc injection 24 h post-TBI
Text: One year old mice are a model for geriatric humans, which often respond differently to radiation exposure and drugs. One year old mice were exposed to different doses of radiation to construct a radiation dose response curve. […] The LD50/30 for one year old mice was 959 cGy, compared to 853 cGy for 12 week old mice. […] Other study details were as described in Example 1 and in Plett et al. (Plett, P A, et al. (2012) Establishing a murine model of the Hematopoietic Syndrome of the Acute Radiation Syndrome. Health Physics 103: 343-355; Plett, P. A., et al. (2014) PEGylated G-CSF (BBT-015), GM-CSF (BBT-007), and IL-11 (BBT-059) analogs enhance survival and hematopoietic cell recovery in a mouse model of the Hematopoietic Syndrome of the Acute Radiation Syndrome. Health Physics Journal 106: 7-20). Mice received one sc injection of the individual test proteins or all possible combinations of the test proteins 24+4/−0 hours post-TBI. Doses of the drugs administered were 1 mg/kg for PEG-G-CSF, 1 mg/kg for PEG-murine GM-CSF, and 0.3 mg/kg for PEG-IL-11.

irradiated mice = assay: Mouse ARS survival assay, PEG-muGM-CSF, 853 or 872 cGy, Example 5; type: in vivo; settings: for % 30-d survival: listed as PEG-muGM-CSF, 1 mg/kg; for # survivors/total mice: 30 days
Description: At the higher 872 cGy radiation dose, 70% of mice treated once with PEG-muGM-CSF at 24 h post-TBI were still alive at 30 days, compared to 10% of vehicle-treated mice.

LD65/30 irradiated mice = assay: Mouse ARS survival assay, LD65/30 (872 cGy), Example 10; type: in vivo; settings: single sc injection 24 h post-irradiation
Description: The efficacy of three individual HGFs and all possible combinations of the 3 proteins to increase 30 day survival of lethally irradiated mice was tested at an LD65/30 radiation dose (a dose of radiation expected to cause death to 65% of an exposed population within 30 days). This experiment was performed as described in Example 1 except that the radiation dose used was 872 cGy and there were 20 mice per test group (10 males/10 females). The three HGFs were the same ones used in Example 1.

lethally irradiated mice = settings: single sc injection; cited from earlier work
[4] = sc 30 mg/kg twice per day for 4 days starting 48 hours before irradiation
[5] = Lisinopril Day 7 to Day 50, mean ± SD, 8 rats
[6] = 853 cGy, 1 mg/kg single sc at 24 h post-TBI
[7] = 872 cGy, 1 mg/kg single sc at 24 h post-TBI

What does the source list for `CCC[C@H](N[C@@H](C)C(=O)N1[C@H](C(=O)O)C[C@@H]2CCCC[C@@H]21)C(=O)OCC` [perindopril]?
48-day survival vs water (8.3 Gy irradiated mice; sc 10 mg/kg twice per day for 4 days starting 48 hours before irradiation): did not significantly improve; 48-day survival vs water (8.3 Gy irradiated mice; [4]): did significantly improve survival; 48-day survival vs water (8.3 Gy irradiated mice; sc 90 mg/kg twice per day for 4 days starting 48 hours before irradiation): did significantly improve survival; 30-day survival versus water (8.3 Gy irradiated mice; [4]): improved 30-day survival; inhibition of plasma ACE activity (plasma ACE activity): 100%

What does the source list for `C[C@H](CS)C(=O)N1CCC[C@H]1C(=O)O` [Captopril]?
30-day survival (8.25 Gy-irradiated mice; captopril 0.55 g/L in drinking water from day 1 to day 30 post-TBI, genestein (if given) 200 mg/kg sc 24 h pre-TBI): 45%; 30-day survival (8.25 Gy-irradiated mice; captopril from day 0 (1 h post-TBI) to day 30, genestein (if given) 200 mg/kg sc 24 h pre-TBI): 55%; 30-day survival (7.5 Gy-irradiated mice; captopril 0.55 g/L in drinking water from day −7 until Day 0): 0%; 30-day survival (7.5 Gy-irradiated mice; captopril from day 0 (1 hour post-TBI) until Day 30 post-TBI): 100%; 30-day survival (7.5 Gy-irradiated mice; captopril from day 1 (24 h) post-TBI until Day 7 post-TBI): 85%; 30-day survival (7.5 Gy-irradiated mice; captopril from day −7 prior to TBI until Day 30 post-TBI): 15%; 30-day survival (7 Gy-irradiated rats): 24%

For `NCCCC[C@H](N[C@@H](CCc1ccccc1)C(=O)O)C(=O)N1CCC[C@H]1C(=O)O` [Lisinopril], which “BUN Day 120, median (20th-80th percentile)” value (irradiated rats [1]) is on record?
The value was 23 (20-24) * mg/dL.

What about the “BUN Day 150, median (20th-80th percentile)” value (irradiated rats [1]) of the same molecule?
The value was 25 (22-27) ** mg/dL.

What about the “Cardiac Output” value (irradiated rats [2]; [5]) of the same molecule?
Its value is 170.1 ± 36.4 mL/min.

What about the “End Systolic Volume” value (irradiated rats [2]; [5]) of the same molecule?
The value was 0.125 ± 0.04 mL.

And the “End-Diastolic Volume” value (irradiated rats [2]; [5])?
The value was 0.585 ± 0.08 mL.

And the “Left Ventricle Internal Diameter systole” value (irradiated rats [2]; [5])?
Its value is 0.364 ± 0.03 cm.

What about the “Left Ventricle Mass” value (irradiated rats [2]; [5]) of the same molecule?
Its value is 0.919 ± 0.04 grams.

And the “Left Ventricle Posterior Wall diastole” value (irradiated rats [2]; [5])?
The value was 0.109 ± 0.01 cm.

And the “Left Ventricular Internal Dimension (diastole)” value (irradiated rats [2]; [5])?
The value was 0.57 ± 0.17 cm.

What about the Stroke volume (irradiated rats [2]; [5]) of the same molecule?
The Stroke volume was 0.460 ± 0.06 mL.

And the “radiation-induced changes to heart parameters” value (irradiated rats [2]; Lisinopril on days 7 to 50)?
The value was “prevented or reduced radiation-induced changes”.

And the “Survival (%) Day 40” value (lethally irradiated rats)?
Its value is 100%.

And the “Survival (%) Day 150” value (lethally irradiated rats)?
The value was 92%.

And the “Survival (%) Day 90” value (lethally irradiated rats; listed as Vehicle + Lisinopril)?
Its value is 92%.

What about the “Survival (%) Day 90” value (lethally irradiated rats; listed as Vehicle plus Lisinopril) of the same molecule?
The value was 100%.

B1: PEG GM-CSF: the murine BBT-007 GM-CSF homolog T3C modified with a 40 kDa-PEG (protein, UniProt P01587 18-141, looked up, variant T3C)
Granulocyte-macrophage …: APCRSPITVTRPWKHVEAIKEALNLLDDMPVTLNEEVEVVSNEFSFKKLTCVQTRLKIFEQGLRGNFTKLKGALNMTASYYQTYCPPTPETDCETQVTTYADFIDSLKTFLTDIPFECKKPGQK
modifications: 40 kDa PEG
notes: the murine BBT-007 GM-CSF homolog T3C modified with a 40 kDa-PEG
Which results are given for B1?
# survivors/total mice (LD95/30 irradiated mice; 30 days): 13/40; % 30-d survival (LD95/30 irradiated mice): 32.5%; % 30-d survival (LD95/30 irradiated mice; listed as PEG-GM-CSF): 33%; # survivors/total mice ([3]; 30 days): 11/20; % 30-d survival ([3]; PEG IL-11 0.3 mg/kg, PEG-G-CSF 1 mg/kg, PEG muGM-CSF 1 mg/kg): 55%; % of mice that survived 30 days, pooled data from the two radiation doses (irradiated mice; 853 and 872 cGy pooled, 1 mg/kg single sc at 24 h post-TBI): 77.5%; % 30-d survival (irradiated mice; [6]): 85%; % 30-d survival (irradiated mice; [7]): 70%; # survivors/total mice (irradiated mice; [6]): 17/20; # survivors/total mice (irradiated mice; [7]): 14/20; hematopoietic recovery (CBC) vs vehicle (irradiated mice; day 20 post-TBI, 853 and 872 cGy): accelerated hematopoietic recovery; # survivors/total mice (LD65/30 irradiated mice; 30 days): 14/20; % 30-d survival (LD65/30 irradiated mice; PEG IL-11 0.3 mg/kg, PEG-G-CSF 1 mg/kg, PEG muGM-CSF 1 mg/kg, 20 mice/group): 70%

B2: muGM-CSF: non-long-acting murine GM-CSF (protein, UniProt P01587 18-141, looked up)
Granulocyte-macrophage …: APTRSPITVTRPWKHVEAIKEALNLLDDMPVTLNEEVEVVSNEFSFKKLTCVQTRLKIFEQGLRGNFTKLKGALNMTASYYQTYCPPTPETDCETQVTTYADFIDSLKTFLTDIPFECKKPGQK
With B2 as the molecule, how does the “30-day survival of lethally irradiated mice” value (lethally irradiated mice) read?
The value was “does not improve 30-day survival”.
